Assay [1] deals with Rattus norvegicus. The assay can be described thus: Hypotensive effect in rat at 100 nmol/kg,po. Type of assay: functional.
The species entered for assay [2] is Oryctolagus cuniculus. The experiment in a line: Cardioprotective activity in rabbit model assessed as conductivity relaxation at 30 uM. Type of assay: functional. Also on record: scale not given: the % may be the effect or the level left.
Assay [3] is filed under the species Oryctolagus cuniculus. The experiment in a line: Cardioprotective activity in rabbit model assessed as resistance relaxation at 30 uM. Also on record: scale not given: the % may be the effect or the level left. The format is functional.
Assay [4] is filed under the species Mus musculus. The assay can be described thus: Effect on linoleic level in serum of high fat diet induced mouse model assessed as reduction in linoleic level relative to control. The format is functional. Also on record: scale not given: the % may be the effect or the level left.
Assay [5] is filed under the species Mus musculus. The experiment in a line: Effect on triglyceride level in serum of high fat diet induced mouse model assessed as reduction in triglycerides level relative to control. Type of assay: functional. Also on record: scale not given: the % may be the effect or the level left.
Assay [6] relates to Mus musculus. The experiment in a line: Cardioprotection in […] assessed as decrease in mean arterial pressure at 5 to 10 mg/kg, po measured after 13 weeks relative control. Type of assay: functional. Also on record: scale not given: the % may be the effect or the level left. To be noted: dose 5-10 mg/kg.
The species named for assay [7] is Rattus norvegicus. The assay can be described thus: Activation of rat Na(+)/K(+) ATPase assessed as increase in maximum velocity relative to control.
Assay [8] is filed under the species Mus musculus. The assay can be described thus: Antiatherosclerotic activity in Apoe-/- mouse assessed as attenuation of coronary artery illness relative to control. The format is functional.
Assay [9] is filed under the species Oryctolagus cuniculus. The assay can be described thus: Cardioprotective activity in rabbit model assessed as conductivity relaxation at 8 uM. Type of assay: functional. Also on record: scale not given: the % may be the effect or the level left.
Assay [10] is filed under the species Oryctolagus cuniculus. The assay can be described thus: Cardioprotective activity in rabbit model assessed as resistance relaxation at 5.6 uM. The format is functional. Also on record: scale not given: the % may be the effect or the level left.
The species named for assay [11] is Mus musculus. The experiment in a line: Effect on palmitic level in serum of high fat diet induced mouse model assessed as reduction in palmitic level relative to control. Type of assay: functional. Also on record: scale not given: the % may be the effect or the level left.
For assay [12], the species on record is Oryctolagus cuniculus. The assay can be described thus: Cardioprotective activity in rabbit model assessed as conductivity relaxation at 5.6 uM. Type of assay: functional. Also on record: scale not given: the % may be the effect or the level left.
The species entered for assay [13] is Oryctolagus cuniculus. The experiment in a line: Cardioprotective activity in rabbit model assessed as resistance relaxation at 8 uM. The format is functional. Also on record: scale not given: the % may be the effect or the level left.
The species named for assay [14] is Mus musculus. The assay can be described thus: Effect on oleic level in serum of high fat diet induced mouse model assessed as reduction in oleic level relative to control. The format is functional. Also on record: scale not given: the % may be the effect or the level left.

As to `C[C@H](CS)C(=O)N1CCC[C@H]1C(=O)O` [CAPTOPRIL], the Activity in assay [1] was 29.7 mmHg.
With `O=c1c(O)c(-c2ccc(O)c(O)c2)oc2cc(O)cc(O)c12` [QUERCETIN], the Activity in assay [2] is -72%; in [3] it was -82%; in assay [4], 9%; in assay [5] it was 14%; in [6] it was -12%; in assay [7], 15%. Also, the Activity was 86% in assay [8]; -3.2% in assay [9]; -3.2% in assay [10]; 9% in assay [11]; -20% in [12]; -47% in assay [13]. For the same compound, the Activity in assay [14] amounted to 9%.
